Reference: publication PMC6801739, “Antitumor Activity of a Novel Tyrosine Kinase Inhibitor AIU2001 Due to Abrogation of the DNA Damage Repair in Non-Small Cell Lung Cancer Cells” (International Journal of Molecular Sciences, 2019)

Tests used:
CDK5/p35 = target: T1, CDK5/p35 (Homo sapiens, UniProt Q00535); assay: Kinase profiling at 10 μM (Eurofins); type: biochemical; conditions: read-out: Inhibitory activity
T1 construct: purchased Eurofins Pharma Discovery (KinaseProfiler); IC50 values by Reaction Biology Corp
T1 sequence (Q00535 whole entry): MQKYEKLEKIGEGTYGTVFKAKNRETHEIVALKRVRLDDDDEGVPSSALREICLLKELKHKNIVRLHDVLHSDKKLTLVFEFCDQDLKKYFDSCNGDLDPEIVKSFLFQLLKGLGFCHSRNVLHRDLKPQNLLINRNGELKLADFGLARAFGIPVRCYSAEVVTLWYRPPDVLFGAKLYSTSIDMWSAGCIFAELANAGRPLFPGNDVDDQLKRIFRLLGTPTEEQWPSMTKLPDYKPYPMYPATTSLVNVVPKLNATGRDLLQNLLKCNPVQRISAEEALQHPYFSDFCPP
T1 sequence (Q15078 whole entry partner): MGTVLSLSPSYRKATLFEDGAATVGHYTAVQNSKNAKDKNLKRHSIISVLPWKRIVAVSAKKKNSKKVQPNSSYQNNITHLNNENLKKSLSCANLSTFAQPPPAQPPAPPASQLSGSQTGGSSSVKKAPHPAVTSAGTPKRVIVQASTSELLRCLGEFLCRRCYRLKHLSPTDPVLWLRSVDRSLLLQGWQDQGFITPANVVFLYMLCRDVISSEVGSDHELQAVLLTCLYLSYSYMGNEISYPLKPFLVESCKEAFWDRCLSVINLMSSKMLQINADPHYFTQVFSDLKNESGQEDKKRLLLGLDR

H1299 cells [1] = assay: Immunoblot of cleaved caspase-3 and PARP-1; type: cell-based, human; conditions: 48 h
Procedure: (§1) Cell lysates were prepared by extracting proteins with TNN buffer (40 mM Tris-Cl pH 8.0, 0.2% NP-40, 120 mM NaCl) or radioimmunoprecipitation assay (RIPA) lysis buffer (Millipore, Billerica MA, USA) supplemented with a protease inhibitor cocktail (Thermo Fisher Scientific, Rockford, IL, USA). Equal amounts of proteins were separated using SDS-PAGE on 8–13% gels, and transferred to nitrocellulose membranes (Bio-Rad, Hercules, CA, USA). The membranes were blocked with 5% skim milk in Tris-buffered saline-Tween 20 (TBST) (150 mM NaCl, 10 mM Tris, 0.2% Tween20), followed by overnight incubation with primary antibodies at 4 °C. The blots were developed using peroxidase-conjugated secondary antibody and the immunoreactive proteins were visualized using enhanced chemiluminescence (ECL) reagents, according to the manufacturer’s recommendations (Amersham, GE Healthcare, Buckingamshire, UK). The protein bands were visualized using a digital imaging system (ImageQuant LAS 4000 mini; GE Healthcare, UK). The protein levels were analyzed using Image J software (National Institutes of Health, Bethesda, MD, USA). Experiments were repeated at least thrice.

A549 cells [2] = assay: Immunoblot of cleaved caspase-3 and PARP-1; type: cell-based, human; conditions: 48 h
Procedure: as §1

PIM-1 = target: T2, PIM-1 (Homo sapiens, UniProt P11309); assay: Kinase profiling at 10 μM (Eurofins); type: biochemical; conditions: read-out: Inhibitory activity
T2 construct: purchased Eurofins Pharma Discovery (KinaseProfiler); IC50 values by Reaction Biology Corp
T2 sequence (P11309 whole entry): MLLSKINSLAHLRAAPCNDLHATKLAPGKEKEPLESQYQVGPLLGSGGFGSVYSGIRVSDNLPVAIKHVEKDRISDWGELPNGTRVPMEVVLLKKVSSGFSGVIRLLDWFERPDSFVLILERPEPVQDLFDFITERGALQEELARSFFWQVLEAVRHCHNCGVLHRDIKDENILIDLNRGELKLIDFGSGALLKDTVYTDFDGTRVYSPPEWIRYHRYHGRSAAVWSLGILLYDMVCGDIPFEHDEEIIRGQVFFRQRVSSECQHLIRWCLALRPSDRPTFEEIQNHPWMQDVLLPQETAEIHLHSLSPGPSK

FLT3 [3] = target: T3, FLT3 (Homo sapiens, UniProt P36888); assay: Kinase profiling at 10 μM (Eurofins); type: biochemical; conditions: read-out: Inhibitory activity
T3 construct: purchased Eurofins Pharma Discovery (KinaseProfiler); IC50 values by Reaction Biology Corp
T3 sequence (P36888 27-993): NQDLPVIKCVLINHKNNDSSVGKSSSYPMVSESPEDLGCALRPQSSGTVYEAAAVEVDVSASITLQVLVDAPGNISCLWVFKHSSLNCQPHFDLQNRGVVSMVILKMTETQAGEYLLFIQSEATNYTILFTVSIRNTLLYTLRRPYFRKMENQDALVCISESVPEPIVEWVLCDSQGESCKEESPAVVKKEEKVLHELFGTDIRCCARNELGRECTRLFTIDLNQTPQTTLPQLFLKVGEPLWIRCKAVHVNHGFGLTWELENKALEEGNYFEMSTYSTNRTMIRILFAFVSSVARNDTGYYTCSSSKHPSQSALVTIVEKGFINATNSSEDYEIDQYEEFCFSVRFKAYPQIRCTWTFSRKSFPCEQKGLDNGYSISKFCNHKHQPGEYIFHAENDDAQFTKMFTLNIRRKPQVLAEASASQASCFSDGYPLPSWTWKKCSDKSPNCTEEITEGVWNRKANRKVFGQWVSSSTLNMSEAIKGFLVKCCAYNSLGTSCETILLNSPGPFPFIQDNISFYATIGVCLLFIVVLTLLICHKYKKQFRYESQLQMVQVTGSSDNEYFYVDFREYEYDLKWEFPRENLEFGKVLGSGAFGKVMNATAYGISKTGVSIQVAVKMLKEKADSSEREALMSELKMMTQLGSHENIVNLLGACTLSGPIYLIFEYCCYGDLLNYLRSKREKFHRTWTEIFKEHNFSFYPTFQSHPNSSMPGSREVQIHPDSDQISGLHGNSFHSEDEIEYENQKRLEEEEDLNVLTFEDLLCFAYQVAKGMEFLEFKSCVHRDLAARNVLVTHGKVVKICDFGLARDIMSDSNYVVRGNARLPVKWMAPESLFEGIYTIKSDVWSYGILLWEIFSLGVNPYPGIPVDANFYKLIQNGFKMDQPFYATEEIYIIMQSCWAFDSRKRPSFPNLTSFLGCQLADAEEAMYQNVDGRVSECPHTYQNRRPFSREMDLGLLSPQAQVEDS

IGF-1R = target: T4, IGF-1R (Homo sapiens, UniProt P08069); assay: Kinase profiling at 10 μM (Eurofins); type: biochemical; conditions: read-out: Inhibitory activity
T4 construct: purchased Eurofins Pharma Discovery (KinaseProfiler); IC50 values by Reaction Biology Corp

H1299 cells [4] = assay: Immunoblot of phospho-STAT5; type: cell-based, human
Procedure: as §1

H1299 cells [5] = assay: Immunoblot of cell cycle checkpoint proteins; type: cell-based, human; conditions: 5 μM, 6 h or 24 h
Procedure: as §1

A549 cells [6] = assay: Immunoblot of cell cycle checkpoint proteins; type: cell-based, human; conditions: 5 μM
Procedure: as §1

FAK = target: T5, FAK (Homo sapiens, UniProt Q05397); assay: Kinase profiling at 10 μM (Eurofins); type: biochemical; conditions: read-out: Inhibitory activity
T5 construct: purchased Eurofins Pharma Discovery (KinaseProfiler); IC50 values by Reaction Biology Corp
T5 sequence (Q05397 whole entry): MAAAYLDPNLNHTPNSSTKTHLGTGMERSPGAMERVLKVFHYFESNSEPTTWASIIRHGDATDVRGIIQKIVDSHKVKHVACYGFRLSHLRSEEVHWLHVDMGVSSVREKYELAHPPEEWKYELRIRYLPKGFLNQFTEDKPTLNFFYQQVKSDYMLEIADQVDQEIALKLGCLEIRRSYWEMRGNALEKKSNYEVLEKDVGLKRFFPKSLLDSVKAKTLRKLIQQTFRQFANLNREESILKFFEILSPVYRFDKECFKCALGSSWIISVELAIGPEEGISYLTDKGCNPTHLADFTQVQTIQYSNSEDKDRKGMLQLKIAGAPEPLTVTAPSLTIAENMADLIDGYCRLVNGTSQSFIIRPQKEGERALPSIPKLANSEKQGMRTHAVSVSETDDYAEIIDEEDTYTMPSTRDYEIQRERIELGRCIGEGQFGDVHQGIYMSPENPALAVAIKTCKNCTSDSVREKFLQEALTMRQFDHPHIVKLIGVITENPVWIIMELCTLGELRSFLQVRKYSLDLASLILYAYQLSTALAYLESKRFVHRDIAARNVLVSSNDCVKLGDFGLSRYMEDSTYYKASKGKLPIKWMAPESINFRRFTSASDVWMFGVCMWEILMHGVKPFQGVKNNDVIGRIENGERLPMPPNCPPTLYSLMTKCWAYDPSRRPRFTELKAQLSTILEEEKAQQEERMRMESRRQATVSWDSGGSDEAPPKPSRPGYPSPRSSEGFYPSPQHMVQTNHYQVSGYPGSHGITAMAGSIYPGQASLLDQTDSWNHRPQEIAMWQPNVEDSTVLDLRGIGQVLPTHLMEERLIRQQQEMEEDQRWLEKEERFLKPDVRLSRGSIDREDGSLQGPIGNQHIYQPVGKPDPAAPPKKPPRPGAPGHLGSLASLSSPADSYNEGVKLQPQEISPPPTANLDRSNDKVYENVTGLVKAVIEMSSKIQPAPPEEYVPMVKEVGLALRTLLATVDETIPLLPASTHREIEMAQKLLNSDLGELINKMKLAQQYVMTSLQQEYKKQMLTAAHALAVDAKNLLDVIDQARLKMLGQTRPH

EGFR = target: T6, EGFR (Homo sapiens, UniProt P00533); assay: Kinase profiling at 10 μM (Eurofins); type: biochemical; conditions: read-out: Inhibitory activity
T6 construct: purchased Eurofins Pharma Discovery (KinaseProfiler); IC50 values by Reaction Biology Corp

Aurora-A = target: T7, Aurora-A (Homo sapiens, UniProt O14965); assay: Kinase profiling at 10 μM (Eurofins); type: biochemical; conditions: read-out: Inhibitory activity
T7 construct: purchased Eurofins Pharma Discovery (KinaseProfiler); IC50 values by Reaction Biology Corp
T7 sequence (O14965 whole entry): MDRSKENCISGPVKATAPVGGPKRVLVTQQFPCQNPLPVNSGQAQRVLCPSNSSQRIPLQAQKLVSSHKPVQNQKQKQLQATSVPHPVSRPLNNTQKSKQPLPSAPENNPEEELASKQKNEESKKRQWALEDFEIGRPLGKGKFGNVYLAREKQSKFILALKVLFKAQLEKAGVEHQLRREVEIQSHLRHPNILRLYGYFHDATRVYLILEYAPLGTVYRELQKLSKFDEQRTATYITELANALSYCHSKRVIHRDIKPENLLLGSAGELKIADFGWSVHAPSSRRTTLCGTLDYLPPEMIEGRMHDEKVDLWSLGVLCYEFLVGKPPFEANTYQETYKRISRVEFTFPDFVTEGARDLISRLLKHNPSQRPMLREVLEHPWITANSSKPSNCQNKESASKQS

H1299 cells [7] = assay: Annexin V/PI flow cytometric analysis of apoptosis; type: cell-based, human; conditions: 10 µM, 48 h
Procedure: (§2) Annexin V assays were performed according to the manufacturer’s protocol (BD Pharmingen, San Diego, CA, USA). Briefly, 10,000 cells were plated into 60-mm plates and treated with varying concentrations of AIU2001 for 48 h. The cells were harvested and incubated with 4 μL allophycocyanin (APC)-conjugated annexin V (20 μg/mL) and 4 μL PI (50 μg/mL) for 15 min. Fluorescence analyses were performed using flow cytometry (CyFlow Cube 6; Sysmexpartec, Goerlitz, Germany). Cells were classified as early apoptotic (annexin V-positive/PI-negative), late apoptotic/necrotic (annexin V-positive/PI-positive), necrotic/dead (annexin V-negative/PI-positive), and live (annexin V-negative/PI-negative). Flow cytometry data was analyzed using FlowJo software (TreeStar Inc., Ashland, OR, USA).

A549 cells [8] = assay: Annexin V/PI flow cytometric analysis of apoptosis; type: cell-based, human; conditions: 10 µM, 48 h
Procedure: as §2

H1299 cells [9] = assay: Detection of intracellular ROS (CM-H2DCFDA, flow cytometry); type: cell-based, human; conditions: 5 μM, 24 h
Procedure: (§3) DMSO- or AIU2001-treated cells (5 × 10^5) were further treated with 10 μM CM-H2DCFH-DA for 30min and then washed with PBS before trypsinization. After detaching with trypsin, the cells were collected, washed, and resuspended in PBS. ROS inhibition was evaluated by treating cells with 5 mM NAC 2 h prior to AIU2001 treatment. Intracellular ROS levels were detected using a flow cytometer (CyFlow cube 6) at excitation/emission wavelengths of 488/525 nm.

A549 cells [10] = assay: as above; type: cell-based, human; conditions: 5 μM, 24 h
Procedure: as §3

CCD18-Lu cells = assay: MTT cell viability assay; type: cell-based, human; conditions: CCD18-Lu lung fibroblast cells, five days
Procedure: (§4) Cell viability was assessed using the MTT colorimetric assay. Cells (1 × 10^3 cells/well) were seeded into 96-well plates and treated with the various concentrations of each compound or combination of two compounds. After five days of treatment, 10 μL MTT (0.5 mg/mL) was added, and further incubated for 3 h. After removal of the supernatant, the resultant pellet was dissolved in DMSO. The absorbance of the resultant formazan was measured at 540 nm using a plate reader (Multiskan EX; ThermoLabsystems, Waltham, MA, USA).

BEAS2B cells = assay: MTT cell viability assay; type: cell-based, human; conditions: BEAS2B normal bronchial epithelial cells, five days
Procedure: as §4

H460 cells = assay: MTT cell viability assay; type: cell-based, human; conditions: five days
Procedure: as §4

PDGFRα = target: T8, PDGFRα (Homo sapiens, UniProt P16234); assay: Kinase profiling at 10 μM (Eurofins); type: biochemical; conditions: read-out: Inhibitory activity
T8 construct: purchased Eurofins Pharma Discovery (KinaseProfiler); IC50 values by Reaction Biology Corp
T8 sequence (P16234 24-1089): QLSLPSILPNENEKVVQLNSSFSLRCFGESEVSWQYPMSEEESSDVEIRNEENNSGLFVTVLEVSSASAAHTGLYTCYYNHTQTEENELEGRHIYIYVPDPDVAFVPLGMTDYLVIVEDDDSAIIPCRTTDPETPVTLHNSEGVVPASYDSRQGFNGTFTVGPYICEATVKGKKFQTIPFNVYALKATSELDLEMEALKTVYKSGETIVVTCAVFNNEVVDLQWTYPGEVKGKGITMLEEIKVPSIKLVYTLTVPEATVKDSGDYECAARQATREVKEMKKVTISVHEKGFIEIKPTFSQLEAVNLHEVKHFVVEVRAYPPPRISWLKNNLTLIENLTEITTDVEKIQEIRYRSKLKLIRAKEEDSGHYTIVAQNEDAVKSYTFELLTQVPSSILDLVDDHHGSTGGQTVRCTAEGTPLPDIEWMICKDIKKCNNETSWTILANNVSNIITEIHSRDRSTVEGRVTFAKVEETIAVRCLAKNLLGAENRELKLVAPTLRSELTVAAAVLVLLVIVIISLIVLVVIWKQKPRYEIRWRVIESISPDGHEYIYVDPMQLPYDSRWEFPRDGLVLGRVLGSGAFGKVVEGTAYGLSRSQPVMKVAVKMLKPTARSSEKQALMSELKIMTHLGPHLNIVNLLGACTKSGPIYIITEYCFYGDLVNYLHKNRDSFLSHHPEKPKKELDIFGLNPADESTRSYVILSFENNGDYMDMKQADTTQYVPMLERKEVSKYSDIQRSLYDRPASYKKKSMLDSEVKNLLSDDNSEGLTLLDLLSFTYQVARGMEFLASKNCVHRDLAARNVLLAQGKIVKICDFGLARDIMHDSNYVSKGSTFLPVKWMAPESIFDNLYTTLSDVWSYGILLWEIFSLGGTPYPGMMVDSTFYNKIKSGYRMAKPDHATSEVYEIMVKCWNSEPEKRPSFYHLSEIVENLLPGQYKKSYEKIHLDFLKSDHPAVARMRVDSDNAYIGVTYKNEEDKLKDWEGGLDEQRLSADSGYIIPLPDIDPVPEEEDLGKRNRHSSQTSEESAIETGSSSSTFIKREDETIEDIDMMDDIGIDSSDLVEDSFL

FLT3 [11] = target: T3, FLT3; assay: In vitro kinase assay, IC50 (Reaction Biology Corp.); type: biochemical
c-KIT = target: T9, c-KIT (Homo sapiens, UniProt P10721); assay: as above; type: biochemical
T9 construct: purchased Eurofins Pharma Discovery (KinaseProfiler); IC50 values by Reaction Biology Corp

inhibition at 10 µM (CDK5/p35): 58%
inhibition at 10 µM (PIM-1): 37%
inhibition at 10 µM (FLT3 [3]): ≥ 75%
inhibition at 10 µM (IGF-1R): 0%
inhibition at 10 µM (FAK): 16%
inhibition at 10 µM (EGFR): 10%
inhibition at 10 µM (Aurora-A): 28%
inhibition at 10 µM (PDGFRα): 48%
IC50 (FLT3 [11]): 206 nM
IC50 (c-KIT): 223 nM
SMILES: Brc1ccc(-c2cnc(Nc3cccc4ccccc34)o2)cc1 [AIU2001, 5-(4-bromophenyl)-N-(naphthalen-1-yl) oxazol-2-amine]
Cleavage of caspase-3 and PARP-1 (H1299 cells [1]): increased cleavage
Cleavage of caspase-3 and PARP-1 (A549 cells [2]): increased cleavage
Phosphorylated STAT5 (H1299 cells [4]): inhibited phosphorylated STAT5
CDC25C level (H1299 cells [5]): decrease
Cyclin B1 level (H1299 cells [5]): significant increase
Phosphorylated histone H3 level (H1299 cells [5]): significant increase
Phosphorylation of CHK1 at Ser345 (H1299 cells [5]): increased the phosphorylation
Phosphorylation of CHK2 at Thr68 (H1299 cells [5]): increased the phosphorylation
Expression of p21 (A549 cells [6]; A549 (p53 wild-type)): increased in A549 cells
Expression of phosphorylated p53 (A549 cells [6]; A549 (p53 wild-type)): increased in A549 cells
CDC25C level (A549 cells [6]; A549, 6 h or 24 h): decrease
Cyclin B1 level (A549 cells [6]; A549, 6 h or 24 h): significant increase
Phosphorylated histone H3 level (A549 cells [6]; A549, 6 h or 24 h): significant increase
Phosphorylation of CHK1 at Ser345 (A549 cells [6]; A549, 6 h or 24 h): increased the phosphorylation
Phosphorylation of CHK2 at Thr68 (A549 cells [6]; A549, 6 h or 24 h): increased the phosphorylation
Increase in early and late apoptotic cells (H1299 cells [7]): 6.7 fold
Increase in early and late apoptotic cells (A549 cells [8]): 4.2 fold
ROS levels (H1299 cells [9]): distinctly increased ROS levels
ROS levels (A549 cells [10]): distinctly increased ROS levels
Growth inhibition (CCD18-Lu cells): relatively less
Growth inhibition (BEAS2B cells): relatively less
Growth inhibition (H460 cells): significantly inhibited the growth
